This assay relates to MSC-EVs. Put plainly: Dye labelling of MSC-EV preparations analysed by imaging flow cytometry (IFCM). As to the method:
MSC-EVs were prepared form human platelet lysate containing MSC-conditioned media by polyethylene glycol 6000 precipitation followed by ultracentrifugation, as described previously (Borger, V. et al, 2020, Scaled Isolation of Mesenchymal Stem/Stromal Cell-Derived Extracellular Vesicles. Curr Protoc Stem Cell Biol 55, e128; Kordelas et al., 2014, MSC-derived exosomes: a novel tool to treat therapy-refractory graft-versus-host disease. Leukemia 28, 970-973; Ludwig et al., 2018, Precipitation with polyethylene glycol followed by washing and pelleting by ultracentrifugation enriches extracellular vesicles from tissue culture supernatants in small and large scales. J Extracell Vesicles 7, 1528109). Conditioned media were harvested every 48 h. Obtained MSC-EV preparations were diluted in NaCl-HEPES buffer (Sigma-Aldrich, Taufkirchen, Germany) such that 1 mL of final samples contained the preparation yield of the conditioned media of approximately 4.0×10^7 cells.
The staining with CFSE (Thermo Fisher Scientific, Darmstadt, Germany) was based on the manufacturer's protocol. Slight modifications were required to reduce the signal from unbound CFSE. Briefly, the CFSE stock solution was diluted to a working solution of 10 μM CFSE. The solution was centrifuged three times for 10 min at 17,000 × g. Subsequently, 25 μL of MSC-EV preparations, corresponding to the amount of EVs derived from 1×10^6 MSCs, were incubated with the centrifuged CFSE solution for 20 min at 37° C. The sample was diluted 1:20 to a final volume of 1 mL prior to analysis.
The staining of MSC-EV preparations with Calcein AM followed the manufacturer's instructions. Briefly, 25 μL of MSC-EV preparations were incubated with 25 μL of a 20 μM solution of Calcein AM (Thermo Fisher Scientific) for 40 min at 37° C. The sample was diluted 1:20 to a final volume of 1 mL to reduce background noise, avoiding the requirement of a washing step.
The staining of MSC-EV preparations with BODIPY-TR-Ceramide followed the manufacturer's instructions. Briefly, 25 μL of the MSC-EV preparation, corresponding to EVs purified from […], were incubated with 25 μL of a 20 μM solution of BODIPY TR Ceramide (Thermo Fisher Scientific) for 20 min at 37° C. 450 μL of 0.9% NaCl with 10mM HEPES (0.9% NaCl, Melsungen, B. Braun; HEPES, Thermo Fisher Scientific) buffer was added and the EVs were washed by using a Centrifugal Concentrator (Vivaspin 500; Sartorius, Gottingen, Germany). The retentate was adjusted to 500 μL prior to analysis.
The staining of MSC-EV preparations with PKH67 followed the manufacturer's instructions for labeling EVs (Thermo Fisher Scientific). Briefly, using 200 μL of given MSC-EV preparations, corresponding to EVs purified from 8×10^6 cells, the solution was adjusted with Diluent C to a final volume of 1 mL. […]

Consider `CCCCCCCCCCCCCCCCCCN(C)C(=O)c1ccccc1-c1c2ccc(=[N+](CC)CC)cc-2oc2cc(N(CC)CC)ccc12.[Cl-]` [Dye 2, Rhodamine B N-methyloctadecylamide], for which, under “IFCM, with anti-CD9, anti-CD63, anti-CD81 counterstaining where done”, the “labelling of sEVs in MSC-EV preparations (conclusion)” value was “successfully labels most of the sEVs”. Moreover, for the setting “dye + MSC-EVs”, the “labelled objects in MSC-EV preparations (FIG. 8)” value was “solid populations of labelled objects were observed”.

Source of the values: patent US20240093034A1, “FLUORESCENT DYES” (EXOPHARM LIMITED, priority 2020, published 2024).
